The test system of series [1] is neurons in CA1 and CA2 fields of the hippocampus and in the subiculum. Description: In vivo protection against global brain ischemia (bilateral carotid occlusion, gerbils). Also on record: species or system Adult male Mongolian gerbils. To be noted: for median number of visibly damaged neurons, CA2: saline controls 23.9; for median number of visibly damaged neurons, Subiculum: saline controls 214.0; for median number of visibly damaged neurons, CA1: saline controls 235.5; for protection against ischemia: gerbils, IP. The method, then:
Adult male Mongolian gerbils, 50 to 60 grams body weight, were put under methoxyflurane anesthesia and surgically subjected to reversible bilateral carotid occlusion for 5 minutes, using published methods (Wasterlain et al 1996). Occlusion was produced by exposure of both common carotid arteries via a ventral midline incision, isolation of the carotids with 4-0 silk suture, and application of microaneurysm clips. After five minutes of occlusion, the clips were removed, and the incision was closed. Body temperature was maintained at 37° C. throughout the surgical and recovery periods.
Blockage of both common carotids generates global brain ischemia in most gerbils. However, some gerbils contain a vascular structure at the base of the brain which resembles the Circle of Willis in humans, which allows some commingling of oxygenated blood from the carotid and vertebral arteries. Accordingly, the surgical method of generating global ischemia in gerbils by clamping flow through the carotids is not completely reliable in all test animals. To overcome this problem, a sufficient number of gerbils must be treated and tested to ensure statistically significant and reliable results.
A solution containing the test compound (or saline, as a control) was administered at the dosage and time described below, via intraperitoneal (IP) injection. The gerbils were sacrificed 72 hours later, and the brains were perfusion-fixed with paraformaldehyde. Serial sections of the brain were cut and stained with hematoxylin and eosin, and quantitative cell counts of live and dead neurons in the CA1 and CA2 fields of the hippocampus and in the subiculum were made, using both light and fluorescence microscopy. Evaluation of neuronal damage in other brain regions was also made on a semi-quantitative scale, and statistical analysis was performed on all damage scores (non-paired Student's T test).
The in vivo tests involving the CYP-PA2 compound used two different dosage regimens. One set of test animals received two injections: 30 mg/kg, at 30 minutes prior to the start of ischemia, and another 30 mg/kg at 90 minutes after the termination of ischemia. […] This neuroprotective activity was statistically significant at higher than the 95% level. A second set of test animals received a smaller dosage (10 mg/kg) of CYP-PA2, in a single injection 30 minutes before the onset of ischemia.
Tests on the CYP-PA1 compound used three different dosage levels: 7.5 mg/kg, injected 30 minutes before occlusion began; 20 mg/kg, injected 30 minutes before occlusion began; and 20 mg/kg, injected 30 minutes after occlusion was terminated.
The values reported in Table 3 are median numbers of visibly damaged neurons, counted in a single entire tissue slice.

The test system of series [2] is neurons of the CA1 region of the hippocampus. As to the kind of experiment: Hippocampal slice assay: protection of CA1 neurons against hypoxic injury (recovery of population spike). The series is classed as cell-based, male Sprague-Dawley rats. Conditions: for EC50: Rattus norvegicus, Neuron, 1 h, 50% recovery 60 minutes after hypoxia; for relative potency in hippocampal slices: comparison CYP-PA2 with CYP-PA1, or CYP-PA2X with CYP-PA2. The method, then:
(2) Additional in vitro tests involving perfused slices of hippocampal tissue from the brains of sacrificed rats, as described in Example 8. Various poly-guanidino candidates with good combinations of N-channel and P/Q-channel blocking potency (as shown in the ligand blocking assays of Example 7) were tested to determine their ability to protect hippocampal neurons against damage during and after a period of tissue hypoxia.
The ability of CYP-PA1 and CYP-PA2 to protect against hypoxic injury in neurons of the CA1 region of the hippocampus was examined, using an assay which involves intact tissue sections taken from the hippocampal regions of rat brains. To carry out these assays, male Sprague-Dawley rats were briefly anesthetized with halothane and decapitated. Brains were quickly removed and placed in cold artificial cerebral spinal fluid (ACSF) for one minute. ACSF was composed of (in mM): NaCl, 126; KCl, 4; KH2 PO4, 1.4; MgSO4, 1.3; CaCl2, 2.4; NaHCO3, 26; and glucose, 4; pH 7.4, saturated with 95% O2, 5% CO2. Hippocampi were dissected free from the brains, and cut into 475 μm transverse sections (also called slices). The slices were placed in paired recording wells perfused with ACSF maintained at 37° C. Several hippocampal slices were placed in each recording well.
One hour after placement of the tissue slices into recording wells, the orthodromic CA1 population spike (PS) was measured. This indicator of synaptic and neuronal cell body function was elicited by stimulation with a twisted bipolar electrode placed over the CA3 Schaffer collaterals. Responses were recorded in the pyramidal layer of CA1, using a tungsten electrode. Strengths of currents and recording electrode depth were adjusted to obtain maximal amplitude of the CA1 PS. Only slices having an orthodromic CA1 PS of 3 mV or greater on initial assessment were used for further testing.
One tissue slice in each well was given orthodromic stimulation every 30 seconds throughout the experiment, in order to monitor evoked response activity. These slices were designated as "stimulated slices." In general, periodic stimulation provides an even more rigorous test of neuroprotective ability, since the repeated stimulation forces neurons to use up their metabolic resources after each impulse, to reestablish a polarized and ready-to-fire status.
For the remaining slices in each well, orthodromic and antidromic PS amplitude was assessed at the beginning and end of each experiment, without any periodic stimulation. These slices were designated as "unstimulated slices."
All slices were subjected to hypoxia by changing the perfusion medium to oxygen-devoid ACSF saturated with 95% N2, 5% CO2. Slices in one recording well additionally received exposure to various concentrations of the poly-guanidino compounds discussed above, added directly into the perfusion ACSF. Hypoxic duration was continued until 5 minutes after the disappearance of the hypoxic injury potential (Fairchild et al 1988) in the unmedicated stimulated slice. Final recovery was assessed 60 minutes after returning to oxygenated conditions. Exposure to the poly-guanidino compounds began 30 minutes prior to hypoxia and continued through the first 15 minutes of recovery.

Series [3] is described as follows: LD50 toxicity test, intraperitoneal injection in mice. The series is classed as in vivo. Conditions: for LD50: mouse, in vivo, ip. The method, then:
At roughly the same time as the hippocampal tissue tests were being carried out, various polyamine compounds were also tested in toxicity tests, using conventional LD50 tests in mice. […] According, subsequent in vivo tests focused mainly on the CYP-PA1 compound.
These tests used intraperitoneal (IP) injection in mice.

The target in series [4] is L-type calcium channels. Description: Competitive inhibition of 3H-PN200-110 (or 3H-nitrendipine) binding to L-type calcium channels, rat brain neuronal membranes. Conditions: Table 1.
Series [5] deals with L-type channels. To be noted: background; cited from earlier work.
Series [6] relates to T channels. To be noted: background; cited from earlier work.
Where [7] appears, read: 20 mg/kg IP post (30 minutes after occlusion terminated).
Setting [8] is: stimulated slices, antidromic, read-out: EC50, antidromic PS amplitude, stimulated slices.
Where [9] appears, read: stimulated slices, orthodromic, read-out: EC50, orthodromic PS amplitude, stimulated slices.
Where [10] appears, read: unstimulated slices, antidromic, read-out: EC50, antidromic PS amplitude, unstimulated slices.
Setting [11] is: unstimulated slices, orthodromic, read-out: EC50, orthodromic PS amplitude, unstimulated slices.

Entries after “also recorded” stand apart in the source; their conditions may differ. Where two headings read alike, the source gives them in different places.

The term EC50 denotes the concentration needed to bring the measured effect to its halfway point. The term IC50 denotes the midpoint of a concentration-inhibition curve. Consider `N=C(N)NCCC[C@H](N)C(=O)NCCN(CCNC(=O)[C@@H](N)CCCNC(=N)N)CCNC(=O)[C@@H](N)CCCNC(=N)N` [CYP-PA1, tris(arginyl-2-aminoethyl)amine], for which the “median number of visibly damaged neurons, CA2” value in series [1] (7.5 mg/kg IP pre-occlusion) is 15.2; in series [1] (setting [7]), 14.7; in series [1] (20 mg/kg IP pre-occlusion), 10.4. In addition, the “median number of visibly damaged neurons, Subiculum” value was found to be 91.5 in series [1] (7.5 mg/kg IP pre-occlusion), 31.0 in series [1] (setting [7]) and 38.5 in series [1] (20 mg/kg IP pre-occlusion). For the same molecule, the “median number of visibly damaged neurons, CA1” value in series [1] (7.5 mg/kg IP pre-occlusion) came out at 37.5; in series [1] (setting [7]), 14.5; in series [1] (20 mg/kg IP pre-occlusion) it was 18.0. The “significance of reduction in neuronal damage, CA2” value in series [1] (CA2 region) was “did not rise to the level of significance at the 95% confidence level”. For the same molecule, the “number of injured neurons vs saline-treated controls” value in series [1] (all treatment dosages) is given as “substantially reduced”. In addition, the “protection against ischemia” value in series [1] is “quite substantial and beneficial; also recorded: substantial and beneficial protection against actual ischemia”. The “significance level of reduction in neuronal damage, subiculum and CA1” value in series [1] (subiculum and CA1 regions) is recorded as not below 98%. Further, the “neuroprotective activity in hippocampal slices” value in series [2] was “substantial neuroprotective activity”. Moreover, the EC50 in series [2] (setting [8]) came out at 95 µM; in series [2] (setting [9]), 97 µM; in series [2] (setting [10]) it was 87 µM; in series [2] (setting [11]) it was 90 µM. Besides, the “toxicity: lethal or other adverse effects” value in series [3] (IP, even at highest dosage tested (200 mg/kg)) is given as “no detectable lethal or other adverse effects; also recorded: completely free of any toxicity concerns”. The IC50 in series [4] is more than 300 µM.
Broadly, the LD50 is the dose expected to kill half of the subjects tested. Consider `N=C(N)NCCC[C@H](NC(=O)[C@@H](N)CCCNC(=N)N)C(=O)NCCN(CCNC(=O)[C@H](CCCNC(=N)N)NC(=O)[C@@H](N)CCCNC(=N)N)CCNC(=O)[C@H](CCCNC(=N)N)NC(=O)[C@@H](N)CCCNC(=N)N` [CYP-PA2, Tris(arginyl-arginyl-2-aminoethyl)amine], for which, in series [1] (10 mg/kg IP single injection), the “statistical significance of reduction of neuronal damage” value is “did not reach the 95% confidence level”. Moreover, the neurons damaged in series [1] (10 mg/kg IP single injection 30 minutes before ischemia, untreated control 74.6%) was determined as 56.1%. For the same molecule, in series [1] (2 x 30 mg/kg IP, 30 minutes before and 90 minutes after ischemia, untreated control 74.6%), the “neurons showing visible damage” value is 40.9%. Besides, the “statistical significance of neuroprotective activity” value in series [1] (2 x 30 mg/kg IP, confidence level) was more than 95%. In addition, the “protection against ischemia” value in series [1] is “good neuroprotective activity; also recorded: substantial and beneficial protection against actual ischemia”. For the same molecule, the “neuroprotective activity in hippocampal slices” value in series [2] is “substantial neuroprotective activity; also recorded: potent neuroprotective benefits”. In addition, the EC50 in series [2] (setting [8]) amounted to 42 µM; in series [2] (setting [9]), 43 µM; in series [2] (setting [10]), 37 µM; in series [2] (setting [11]), 38 µM. Moreover, the “relative potency in hippocampal slices” value in series [2] is “somewhat more potent than the tri-arginine compound, CYP-PA1”. For the same molecule, the results for the LD50 in series [3] (read-out: LD50) and in series [3] (read-out: LD50 level) were approximately 125 mg/kg and 125 mg/kg, respectively. The half-maximal inhibitory concentration (IC50) in series [4] is more than 100 µM.
Take `N=C(N)NCCC[C@H](NC(=O)[C@@H](N)CCCNC(=N)N)C(=O)NCCN(CCN)CCNC(=O)[C@H](CCCNC(=N)N)NC(=O)[C@@H](N)CCCNC(=N)N` [CYP-PA2X]: the “relative potency in hippocampal slices” value in series [2] was “not as potent as the fully di-arginylated compound CYP-PA2”.
Regarding `Fc1ccc(C(c2ccc(F)cc2)N2CCN(C/C=C/c3ccccc3)CC2)cc1` [flunarizine], in series [5], the “binding to L-type channels” value is “bind to L-type channels”. For the same molecule, in series [6], the “binding to T channels” value is on record as “not to T or N channels”.
As to `COC(=O)C1=C(C)NC(C)=C(C(=O)OCCN(C)Cc2ccccc2)C1c1cccc([N+](=O)[O-])c1` (centres unmarked) [nicardipine], the “binding to L-type channels” value in series [5] was “bind to L-type channels”. In series [6], the “binding to T channels” value was “not to T or N channels”.
As to `COC(=O)C1=C(C)NC(C)=C(C(=O)OC)C1c1ccccc1[N+](=O)[O-]` [nifedipine], the “binding to L-type channels” value in series [5] is “bind to L-type channels”. Further, the “binding to T channels” value in series [6] is recorded as “not to T or N channels”.

Values taken from patent US6063819A (priority 1998, dated 2000).
